Measurements published in ChEMBL document CHEMBL3763141, “Anti-Candida Cassane-Type Diterpenoids from the Root Bark of Swartzia simplex” (2015).
In brackets after ≈: the same amount, converted by molar mass. Activity calls are given as the source filed them. The rule behind the calls is not given here.

Tests used:
Candida albicans [1] = assay: Antifungal activity against Candida albicans CAF2-1 after 24 hrs by spectrophotometry based broth dilution assay; type: functional; conditions: CAF2-1, 24 h
Candida albicans [2] = assay: Antibiofilm activity against Candida albicans CAF2-1 after 48 hrs by XTT assay; type: functional; conditions: CAF2-1, 48 h
Candida albicans [3] = assay: Antifungal activity against Candida albicans CAF2-1 after overnight incubation by MTT based bioautography method; type: functional
Candida albicans [4] = assay: Antifungal activity against hypersusceptible Candida albicans DSY2621 mutant after overnight incubation by MTT based bioautography method; type: functional
Candida albicans [5] = assay: Induction of ultrastructural changes in Candida albicans CAF2-1 assessed as reduction in budding initiation at 16 ug/ml after 18 hrs by uranyl acetate/lead citrate staining based transmission electron microscopy; type: functional, organism-based
Candida albicans [6] = assay: Induction of ultrastructural changes in Candida albicans CAF2-1 assessed as retraction of cytoplasm at 16 ug/ml after 18 hrs by uranyl acetate/lead citrate staining based transmission electron microscopy; type: functional, organism-based
Candida albicans [7] = assay: Induction of ultrastructural changes in Candida albicans CAF2-1 assessed as breakage zones of plasma membrane at 16 ug/ml after 18 hrs by uranyl acetate/lead citrate staining based transmission electron microscopy; type: functional, organism-based
Candida albicans [8] = assay: Induction of ultrastructural changes in Candida albicans CAF2-1 assessed as cytoplasmic content dis-organization at 16 ug/ml after 18 hrs by uranyl acetate/lead citrate staining based transmission electron microscopy; type: functional, organism-based
Candida albicans [9] = assay: Induction of ultrastructural changes in Candida albicans CAF2-1 assessed as cytoplasmic content dis-organization with disappearance of ribosomes at 16 ug/ml after 18 hrs by uranyl acetate/lead citrate staining based transmission electron microscopy; type: functional, organism-based
Candida albicans [10] = assay: Induction of ultrastructural changes in Candida albicans CAF2-1 assessed as cytoplasmic content dis-organization with disappearance of golgi apparatus at 16 ug/ml after 18 hrs by uranyl acetate/lead citrate staining based transmission electron microscopy; type: functional, organism-based
Candida albicans [11] = assay: Induction of ultrastructural changes in Candida albicans CAF2-1 assessed as cytoplasmic content dis-organization with disappearance of mitochondria at 16 ug/ml after 18 hrs by uranyl acetate/lead citrate staining based transmission electron microscopy; type: functional, organism-based
Candida albicans [12] = assay: Induction of ultrastructural changes in Candida albicans CAF2-1 assessed as disorganization and disruption of nuclear membrane at 16 ug/ml after 18 hrs by uranyl acetate/lead citrate staining based transmission electron microscopy; type: functional, organism-based

Compound | MIC (Candida albicans [1]) [µg/mL] | MIC (Candida albicans [2]) [µg/mL] | MIC (Candida albicans [3]) [µg] | MIC (Candida albicans [4]) [µg] | also measured
COc1c(O)c2c(c3c(=O)occc13)CC[C@H]1C(C)(C)CCC[C@]21C | > 32 | > 50 | >50 | – | –
CC1(C)CCC[C@]2(C)c3c(O)c(O)c4c(c3CC[C@@H]12)C(=O)OCC4 | > 32 | 50 (≈ 151 µM) | >50 | 8 | –
COc1c(O)c2c(c3c(=O)occc13)CC[C@H]1C(C)(C)C(=O)CC[C@]21C | > 32 | > 50 | >50 | 10 | –
CC1(C)CCC[C@]2(C)c3c(O)c(O)c4c(c3CC[C@@H]12)C(=O)O[C@H]4CO | 32 (≈ 92.4 µM) | 25 (≈ 72.2 µM) | >50 | 8 | Activity (Candida albicans [5]): Active; Activity (Candida albicans [6]): Active; Activity (Candida albicans [7]): Active; Activity (Candida albicans [8]): Active; Activity (Candida albicans [9]): Active; Activity (Candida albicans [10]): Active; Activity (Candida albicans [11]): Active; Activity (Candida albicans [12]): Active
CC1(C)CCC[C@]2(C)c3c(O)c(O)c4ccoc(=O)c4c3CC[C@@H]12 | > 32 | 50 (≈ 152 µM) | – | – | –
COc1c(O)c2c(c3c1[C@@H](CO)OC3=O)CC[C@H]1[C@@H]3C[C@@H]3CC[C@]21C | > 32 | 50 (≈ 145 µM) | – | – | –
COc1c(O)c2c(c3c1CCOC3=O)CC[C@H]1C(C)(C)C(=O)CC[C@]21C | > 32 | > 50 | >50 | >50 | –
C[C@H]1C(CCO)=C(O)C(=O)[C@H]2[C@H]1CC[C@H]1C(C)(C)CCC[C@]21C | > 32 | > 50 | – | <20 | –
COc1c(O)c2c(c3c1[C@@H](CO)OC3=O)CC[C@H]1C(C)(C)C(=O)CC[C@]21C | > 32 | > 50 | >50 | >50 | –
COc1ccc(-c2coc3cc(O)c(OC)cc3c2=O)cc1 [CASTANIN] | > 32 | > 50 | >50 | – | –
Clc1ccc(COC(Cn2ccnc2)c2ccc(Cl)cc2Cl)c(Cl)c1 (stereo not given) [MICONAZOLE] | 0.0156 (≈ 0.0375 µM) | – | 0.005 | 0.0006 | –
CC1(C)CCC[C@]2(C)c3c(O)c(O)c4c(c3C=C[C@@H]12)C(=O)O[C@@H]4CO | > 32 | 50 (≈ 145 µM) | >50 | >50 | –
COc1c(O)c2c(c3c1[C@H](O)COC3=O)CC[C@H]1C(C)(C)CCC[C@]21C | 32 (≈ 88.8 µM) | 50 (≈ 139 µM) | 2 | 5 | –
COc1c(O)c2c(c3c1[C@@H](CO)OC3=O)CC[C@H]1C(C)(C)CCC[C@]21C | > 32 | > 50 | >50 | 20 | –
COc1c(O)c2c(c3c1CCOC3=O)CC[C@H]1C(C)(C)CCC[C@]21C | > 32 | > 50 | >50 | >50 | –
